The target of assay [1] is endothelin receptor, rat heart ventricle. As to the kind of experiment: [125I]-ET-1 binding assay in rat heart ventricle. To be noted: [125I]-ET-1, rat heart ventricle (10 µg), 37°C, 2 hours. How it is done:
(§1) The compounds of Formula I are valuable antagonists of endothelin. […] Thus, the compounds of Formula I were tested for their ability to inhibit [^125I]-ET-1([^125I]-Endothelin-1) binding in a receptor assay. The binding of the compounds of Formula I is determined by incubation (37°C, 2 hours) of a compound of Formula I with [^125I]-ET-1 and the tissue (rat heart ventricle (10 µg)) in 50 mM Tris(hydroxymethyl)aminomethane hydrochloride (Tris-HCl) (pH 7.4), 5 mM ethylenediamine tetraacetic acid (EDTA), 2 mM ethylene glycol bis(β-aminoethyl ether)N,N,N',N'-tetraacetic acid (EGTA), 100 µM phenylmethylsulfonyl fluoride (PMSF), and 100 µM bacitracin containing protease inhibitors (total volume of 0.5 mL). IC50 values are calculated by weighing nonlinear regression curve-fitting to the mass-action (Langmuir) equation. The functional activity of compounds of Formula I is determined in Rat-1 cells by measuring intracellular levels of second messengers. Thus, cells were prelabeled with [^3H]-inositol and endothelin-stimulated accumulation of total [^3H]-inositol phosphates in the presence of Li^+ is monitored using anion exchange chromatography as described by Muldoon, L. L., et al, Journal of Biological Chemistry, Volume 264, pages 8529-8536 (1989) and Dudley, D. T., et al, Molecular Pharmacology, Volume 38, pages 370-377 (1990). Antagonist activity is assessed as the ability of added compounds to reduce endothelin-stimulated inositol phosphate accumulation. Antagonist activity was also measured by the ability of added compounds to reduce endothelin-stimulated arachidonic acid release in cultured vascular smooth muscle cells as (AAR) described in Reynolds, E., Mok, K., Faseb J., 1991, 5, A1066. The data in the table show the endothelin antagonist activity of representative compounds of Formula I. TABLE 1

A further assay addresses T1, Rat-1 cells (Rattus norvegicus, UniProt P26684).
T1 sequence (P26684 21-426): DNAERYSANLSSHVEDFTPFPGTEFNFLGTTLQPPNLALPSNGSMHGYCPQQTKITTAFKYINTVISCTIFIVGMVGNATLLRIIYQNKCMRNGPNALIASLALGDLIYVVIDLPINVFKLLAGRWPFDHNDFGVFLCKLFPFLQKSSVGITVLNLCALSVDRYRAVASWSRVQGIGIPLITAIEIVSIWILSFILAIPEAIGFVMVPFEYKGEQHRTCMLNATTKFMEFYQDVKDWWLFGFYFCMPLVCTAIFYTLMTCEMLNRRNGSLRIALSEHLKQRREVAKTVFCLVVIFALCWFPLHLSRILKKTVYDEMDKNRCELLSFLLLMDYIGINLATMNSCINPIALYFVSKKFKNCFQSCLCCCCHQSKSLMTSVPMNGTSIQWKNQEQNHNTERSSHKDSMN
The experiment in a line: Endothelin-stimulated inositol phosphate (IP) accumulation in Rat-1 cells. The assay is classed as cell-based. The method, then: as §1, with “Antagonist activity is assessed as the ability of added compounds to reduce endothelin-stimulated inositol phosphate accumulation. Antagonist activity was also measured by the ability of added compounds to reduce endothelin-stimulated arachidonic acid release in cultured vascular smooth muscle cells as (AAR) described in Reynolds, E., Mok, K., Faseb J., 1991, 5, A1066. The data in the table show the endothelin antagonist activity of representative compounds of Formula I. TABLE 1” left out

The test system of the next assay is ET receptor. The conditions noted are these: relative to ET-1; cited from earlier work.

Square brackets hold non-standard residues; d marks the D form. Ends that are not written are not given here. Peptide text beside a SMILES is read from it. d1Nal = N[C@H](Cc1cccc2ccccc12)C(=O)O

`CC[C@H](C)[C@H](NC(=O)[C@H](CC(=O)O)NC(=O)[C@H](CC(C)C)NC(=O)[C@@H](Cc1ccccc1)NC(C)=O)C(=O)N[C@H](C(=O)N[C@@H](Cc1c[nH]c2ccccc12)C(=O)O)[C@@H](C)CC` [Example 1, Ac-D-Phe-Leu-Asp-Ile-Ile-Trp] (Ac-[dF]LDIIW-OH) registered a 50% inhibitory concentration (IC50) in assay [1] of 0.72 µM. `CC[C@H](C)[C@H](NC(=O)[C@H](CC(=O)O)NC(=O)[C@H](CC(C)C)NC(=O)[C@H](N)Cc1cccc2ccccc12)C(=O)N[C@H](C(=O)N[C@@H](Cc1c[nH]c2ccccc12)C(=O)O)[C@@H](C)CC` [Example 4, D-1-Nal-Leu-Asp-Ile-Ile-Trp] (H-[d1Nal]LDIIW-OH): the inhibition at 50 µM against Rat-1 cells came to 53%. `CC[C@H](C)[C@H](NC(=O)[C@H](CC(=O)O)NC(=O)[C@H](CC(C)C)NC(=O)[C@@H](Cc1ccccc1)NC(C)=O)C(=O)N[C@@H](Cc1c[nH]c2ccccc12)C(=O)O` [Example 6, Ac-D-Phe-Leu-Asp-Ile-Trp] (Ac-[dF]LDIW-OH): in assay [1], the concentration for half-maximal inhibition (IC50) was 24.5 µM. This counts as double-digit micromolar. Take `CC[C@@H](C)[C@@H](NC(=O)[C@@H](NC(=O)[C@@H](CC(=O)O)NC(=O)[C@H](CC(C)C)NC(=O)[C@@H](Cc1c[nH]cn1)NC(C)=O)[C@@H](C)CC)C(=O)N[C@@H](Cc1c[nH]c2ccccc12)C(=O)O` [Example 7, Ac-D-His-Leu-D-Asp-Ile-D-Ile-Trp] (Ac-[dH]L[dD]I[dI]W-OH): the IC50 in assay [1] amounted to 6.03 µM. Compared with the last molecule, the IC50 is about 4.1-fold lower. In turn, `CC[C@H](C)[C@H](NC(=O)[C@H](CC(=O)O)NC(=O)[C@@H](Cc1ccccc1)NC(C)=O)C(=O)N[C@H](C(=O)N[C@@H](Cc1c[nH]c2ccccc12)C(=O)O)[C@@H](C)CC` [Example 11, Ac-D-Phe-Asp-Ile-Ile-Trp] (Ac-[dF]DIIW-OH) returned an IC50 in assay [1] of 2.15 µM.

For the molecule “ET[1-20]: ET-1 analogue without the C-terminal amino acid (Trp-21) (CSCSSLMDKECVYFCHLDII; not fully specified (bridges); ends and bridges not checked; UniProt P05305 53-72, looked up, fragment)”, the less functional activity result with ET receptor is given as “approximately 1000 fold”.

(Values after EP0584290B1, “ENDOTHELIN ANTAGONISTS” (WARNER-LAMBERT COMPANY, priority 1991, dated 1992).)
